The EC50 is the midpoint of the concentration-response curve.

Where a name gives a salt, the structure may show the parent alone.

This is an account of results in patent US12180226B2, “Spirotricycle RIPK1 inhibitors and methods of uses thereof” (Merck Sharp & Dohme LLC, priority 2021, dated 2024).

Chain of RIPK1 (recombinant GST-RIPK1 kinase domain, residues 1-327) (Q13546 1-327): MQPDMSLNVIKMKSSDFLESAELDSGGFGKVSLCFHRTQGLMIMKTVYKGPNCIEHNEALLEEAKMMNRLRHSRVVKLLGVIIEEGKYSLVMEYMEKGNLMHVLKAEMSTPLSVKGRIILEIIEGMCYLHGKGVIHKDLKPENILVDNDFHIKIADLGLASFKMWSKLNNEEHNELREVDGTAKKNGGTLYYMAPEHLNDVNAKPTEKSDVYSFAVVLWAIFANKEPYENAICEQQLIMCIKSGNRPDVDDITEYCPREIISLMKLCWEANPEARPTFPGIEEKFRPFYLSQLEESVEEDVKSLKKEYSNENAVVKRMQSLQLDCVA

The experiment addresses RIPK1 (recombinant GST-RIPK1 kinase domain, residues 1-327) (Homo sapiens (Human), UniProt Q13546). Briefly: RIPK1-ADP-Glo Enzymatic Assay. In kind it is biochemical. As to conditions: ADP-Glo; 25 nM GST-RIPK1, 300 μM ATP; assay lower limit ~25 nM; read-out: RIPK1 V0 Ec50. On the procedure:
RIPK1-ADP-Glo Enzymatic Assay
The enzymatic activity of RIPK1 is measured using an assay derived from ADP-Glo kit (TMPromega), which provides a luminescent-based ADP detection system. Specifically, the ADP generated by RIPK1 kinase is proportionally detected as luminescent signals in a homogenous fashion. In this context, the assessment of the inhibitory effect of small molecules (EC50) is measured by the effectiveness of the compounds to inhibit the ATP to ADP conversion by RIPK1.
In this assay, the potency (EC50) of each compound was determined from a ten-point (1:3 serial dilution; top compound concentration of 100000 nM) titration curve using the following outlined procedure. The assay bottom or lower limit of confidence is ˜25 nM. To each well of a white ProxiPlus 384 well-plate, 30 nL of compound (1% DMSO in final assay volume of 3 μL) was dispensed, followed by the addition of 2 μL of 1×assay buffer (25 mM Hepes 7.3, 20 mM MgCl2, 50 mM NaCl, 1 mM DTT, 0.005% Tween20, and 0.02% BSA) containing 37.5 nM of GST-RIPK1 (recombinant GST-RIPK1 kinase domain (residues 1-327) enzyme produced from baculovirus-transfected Sf21 cells: MW=62 kDa). Plates were placed in an ambient temperature humidified chamber for a 30-minute pre-incubation with compound. Subsequently, each reaction was initiated by the addition of 1 μL 1×assay buffer containing 900 μM ATP and […] dephosphorylated-MBP substrate. The final reaction in each well of 3 μL consists of 25 nM of GST-RIPK1, 300 μM ATP, and 3 μM dephosphorylated-MBP. Kinase reactions were allowed to proceed for 150 minutes prior to adding ADP-Glo reagents per Promega's outlined kit protocol. Dose-response curves were generated by plotting percent effect (% product conversion; Y-axis) vs. Log10 compound concentrations (X-axis). EC50 values were calculated using a non-linear regression, four-parameters sigmoidal dose-response model.
(ADP-Glo turns the ADP formed in a reaction into a luminescent signal.)
For the molecule `CCOC(=O)c1cc(N2CCC3(CC2)O[C@@H]2CC[C@@H](c4ccccc4)N2C3=O)ncn1` [Example 4.23, ethyl 6-[(5′S,7a′R)-3′-oxo-5′-phenyltetrahydro-1H,3′H-spiro[piperidine-4,2′-pyrrolo[2,1-b] [1,3]oxazol]-1-yl]pyrimidine-4-carboxylate], the EC50 was determined as 52.8 nM.
In the case of `Cc1ocnc1C(=O)N1CCC2(CC1)O[C@@H]1CC[C@@H](c3ccccc3)N1C2=O` [Example 6.146, (5′S,7a′R)-1-(5-methyl-1,3-oxazole-4-carbonyl)-5′-phenyl-tetrahydro-3′H-spiro [piperidine-4,2′-pyrrolo[2,1-b][1,3]oxazol]-3′-one] it was 34.9 nM.
Next, `N#CCc1nc(C(=O)N2CCC3(CC2)O[C@@H]2CC[C@@H](c4cc(F)cc(F)c4)N2C3=O)cs1` [Example 6.29, {4-[(5′S,7a′R)-5′-(3,5-difluorophenyl)-3-oxo-tetrahydro-1H,3′H-spiro[piperidine-4,2′-pyrrolo[2,1-b][1,3]oxazole]-1-carbonyl]-1,3-thiazol-2-yl} acetonitrile]: 413 nM; `Cc1ccc(F)c(C(=O)N2CCC3(CC2)O[C@@H]2CC[C@@H](c4cccc(F)c4)N2C3=O)c1` [Example 6.133, (5′S,7a′R)-1-(2-fluoro-5-methylbenzene-1-carbonyl)-5′-(3-fluoro-phenyl)tetrahydro-3′H-spiro[piperidine-4,2′-pyrrolo[2,1-b] [1,3]oxazol]-3′-one]: below 25 nM.
In the case of `COC(=O)c1cnc(N2CCC3(CC2)O[C@@H]2CC[C@@H](c4ccccc4)N2C3=O)nc1` [Example 4.194, methyl 2-[(5′S,7a′R)-3′-oxo-5′-phenyltetrahydro-1H,3′H-spiro[piperidine-4,2′-pyrrolo[2,1-b] [1,3]oxazol]-1-yl]pyrimidine-5-carboxylate] it was 699 nM.
Turning to `O=C1N2[C@@H](CC[C@H]2c2cc(F)ccc2F)OC12CCN(c1ccnc3ccnn13)CC2` [Example 4.114, (5′S,7a′R)-5′-(2,5-difluorophenyl)-1-(pyrazolo[1,5-a]pyrimidin-7-yl)tetrahydro-3′H-spiro[piperidine-4,2′-pyrrolo[2,1-b] [1,3]oxazol]-3′-one], the EC50 is below 25 nM.
Take `O=C(c1cc(C2CC2)on1)N1CCC2(CC1)O[C@@H]1CC[C@@H](c3cc(F)cc(F)c3)N1C2=O` [Example 6.25, (5′S,7a′R)-1-(5-cyclo-propyl-1,2-oxazole-3-carbonyl)-5′-(3,5-difluorophenyl)tetra-hydro-3′H-spiro[piperi-dine-4,2′-pyrrolo[2,1-b][1,3]oxazol]-3′-one]: the EC50 amounted to 82.4 nM.
Turning to `O=C1N2[C@@H](CC[C@H]2c2ccccc2)OC12CCN(c1ccnc3c(F)cnn13)CC2F` (single isomer, unassigned) [Example 4.91, (3[R or S],4[S or R], 5′S,7a′R)-3-fluoro-1-(3-fluoropyrazolo[1,5-a]pyrimidin-7-yl)-5′-phenyltetrahydro-3′H-spiro[piperidine-4,2′-pyrrolo[2,1-b]oxazol]-3′-one, TFA salt], the EC50 is below 25 nM.
For `N#Cc1ccc(F)c(C(=O)N2CCC3(CC2)O[C@@H]2CC[C@@H](c4cc(F)cc(F)c4)N2C3=O)c1` [Example 5.16, 3-((5′S,7a′R)-5′-(3,5-difluorophenyl)-3′-oxo-tetrahydro-3′H-spiro [piperidine-4,2′-pyrrolo-[2,1-b]oxazole]-1-carbon-yl)-4-fluorobenzonitrile], the EC50 was below 25 nM.
On to `CC1CN(c2ccnc3ccnn23)CCC12O[C@@H]1CC[C@@H](c3ccccc3)N1C2=O` (stereo partly drawn) [Example 4.238, (4R,5′S,7a′R)-3-methyl-5′-phenyl-1-(pyrazolo[1,5-a]pyrimidin-7-yl)tetrahydro-3′H-spiro[piperidine-4,2′-pyrrolo[2,1-b] [1,3]oxazol]-3′-one], for which the EC50 was below 25 nM.
In the case of `N#Cc1ccc(N2CCC3(CC2)O[C@@H]2CC[C@@H](c4cc(F)cc(F)c4)N2C3=O)cc1` [Example 4.68, 4-[(5′S,7a′R)-5′-(3,5-difluorophenyl)-3′-oxotetrahydro-1H,3′H-spiro[piperidine-4,2′-pyrrolo[2,1-b] [1,3]oxazol]-1-yl]benzonitrile] it was below 25 nM; in that of `O=C1N2[C@H](CC[C@H]2c2cccc(F)c2)OC12CCN(c1ccnc3c(F)cnn13)CC2` [Example 4.15, (5′S,7a′S)-5′-(3-fluorophenyl)-1-(3-fluoropyrazolo[1,5-a]pyrimidin-7-yl)tetrahydro-3′H-spiro[piperidine-4,2′-pyrrolo[2,1-b] [1,3]oxazol]-3′-one], below 25 nM; in that of `N#Cc1cnc(N2CCC3(CC2)O[C@@H]2CC[C@@H](c4ccccc4)N2C3=O)n2ncnc12` [Example 4.241, 5-[(5′S,7a′R)-3′-oxo-5′-phenyltetrahydro-1H,3′H-spiro[piperidine-4,2′-pyrrolo[2,1-b] [1,3]oxazol]-1-yl][1,2,4]triazolo[1,5-c] pyrimidine-8-carbonitrile], below 25 nM.
In the case of `CSc1nc(N2CCC3(CC2)O[C@@H]2CC[C@@H](c4cc(F)cc(F)c4)N2C3=O)n2nccc2n1` [Example 4.86, (5′S,7a′R)-5′-(3,5-difluorophenyl)-1-(2-(methylthio)pyrazolo [1,5-a][1,3,5]triazin-4-yl)tetrahydro-3′H-spiro[piperidine-4,2′-pyrrolo[2,1-b]oxazol]-3′-one, TFA salt], the EC50 came to 269 nM.
In the case of `N#Cc1ccc(N2CCC3(CC2)C[C@@H]2OC[C@@H](c4ccccc4)N2C3=O)c(F)c1` [Example 11.3, 3-fluoro-4-[(3′R,7a′S)-5′-oxo-3′-phenyltetrahydro-1H,5′H-spiro[piperidine-4,6′-pyrrolo[2,1-b][1,3]oxazol]-1-yl]benzonitrile] it was 66.9 nM.
In the case of `O=C1N2[C@@H](CC[C@H]2c2ccccc2)OC12CCN(c1ccn(-c3cnccn3)n1)CC2` [Example 11.5, (5′S,7a′R)-5′-phenyl-1-[1-(pyrazin-2-yl)-1H-pyrazol-3-yl]tetrahydro-3′H-spiro[piperidine-4,2′-pyrrolo[2,1-b][1,3]oxazol]-3′-one], the EC50 turned out to be 67.7 nM.
In the case of `N#Cc1ccnc(N2CCC3(CC2)O[C@@H]2CC[C@@H](c4cccc(F)c4)N2C3=O)c1` [Example 4.54, 2-[(5′S,7a′R)-5′-(3-fluorophenyl)-3′-oxotetrahydro-1H,3′H-spiro[piperidine-4,2′-pyrrolo[2,1-b] [1,3]oxazol]-1-yl]pyridine-4-carbonitrile] it was 31.1 nM; in that of `O=C(c1ccc(F)cc1F)N1CCC2(CC1)O[C@@H]1CC[C@@H](c3cc(F)cc(F)c3)N1C2=O` [Example 5.5, (5′S,7a′R)-1-(2,4-difluoro-benzene-1-carbonyl)5′-(3,5-difluorophenyl)tetra-hydro-3′H-spiro[piperi-dine-4,2′-pyrrolo[2,1-b] [1,3]oxazol]-3′-one], below 25 nM.
Turning to `CC(C)OC(=O)c1ccc(N2CCC3(CC2)O[C@@H]2CC[C@@H](c4ccccc4)N2C3=O)nc1` [Example 4.190, propan-2-yl 6-[(5′S,7a′R)-3′-oxo-5′-phenyltetrahydro-1H,3′H-spiro[piperidine-4,2′-pyrrolo[2,1-b] [1,3]oxazol]-1-yl]pyridine-3-carboxylate], the EC50 worked out at 92.6 nM.
Next, `N#Cc1cc(N2CCC3(CC2)N=C2CC[C@@H](c4cc(F)cc(F)c4)N2C3=O)ncn1` [Example 4.80, (S)-[5′-(3,5-difluorophenyl)-3′-oxo-6′,7′-dihydro-1H,3′H,5′H-spiro[piperidine-4,2′-pyrrolo[1,2-a]imidazol]-1-yl]pyrimidine-4-carbonitrile]: 494 nM.
Next, `Cc1ccccc1C(=O)N1CCC2(CC1)O[C@@H]1CC[C@@H](c3cc(F)cc(F)c3)N1C2=O` [Example 6.11, (5′S,7a′R)-5′-(3,5-difluorophenyl)-1-(2-methybenzene-1-carbonyl)tetrahydro-3′H-spiro[piperidine-4,2′-pyrrolo[2,1-b] [1,3]oxazol]-3′-one]: 69.2 nM; `Cc1ccc([C@@H]2CC[C@H]3OC4(CCN(C(=O)c5ccccc5)CC4)C(=O)N32)cc1F` [Example 17.15, (5′S,7a′R)-1-(benzenecarbonyl)-5′-(3-fluoro-4-methylphenyl)tetrahydro-3′H-spiro[piperidine-4,2′-pyrrolo[2,1-b][1,3]oxazol]-3′-one]: below 25 nM; `O=C(c1ccco1)N1CCC2(CC1)O[C@@H]1CC[C@@H](c3cc(F)cc(F)c3)N1C2=O` [Example 5.50, (5′S,7a′R)-5′-(3,5-difluoro-phenyl)-1-(furan-2-carbon-yl)tetrahydro-3′H-spiro [piperidine-4,2′-pyrrolo-[2,1-b]oxazol]-3′-one]: below 25 nM.
